One experiment concerns 0.25% caffeine solution. Briefly: Sensory evaluation: bitterness reduction of a caffeine solution. In kind it is in vivo. To be noted: for Comments: taste and mouth feel comments, dosage per sample; for Estimated % bitterness reduction: one trained sensory evaluator, vs control, dosage (ppm) per sample (20 to 50-100 ppm). The protocol: The bitter blocker candidates listed in Table 1 were prepared into a 1% sample solution with propylene glycol (i.e., 1 g of bitter blocker per 100 ml of propylene glycol) and heated to ensure complete solubilization. […] A trained sensory evaluator was asked to estimate the perceived bitterness reduction against the control, as well as to provide comments on how the addition of the individual sample solution modulated the taste and mouth feel profile of the resulting caffeine solution.

Experiment [1] deals with peach-flavored energy drink (caffeine, B vitamins). The experiment can be described thus: Sensory evaluation: bitterness reduction of a peach-flavored energy drink. In kind it is in vivo. The following applies: for Comments: dosage per sample; for Estimated % bitterness reduction: caffeine about 710 mg/l, dosage (ppm) per sample (20 to 50-100 ppm). Here is the method: The bitterness blocker candidates listed in Table 1 were prepared into a 1% sample solution with propylene glycol and heated to ensure complete solubilization. […] A trained sensory evaluator was asked to estimate the perceived bitterness reduction against the control, as well as to provide comments on how the addition of the individual sample solution modulated the taste and mouth feel profile of the resulting peach-flavored energy drink.

In experiment [2] the test system is melted dark chocolate pieces with 100% dark cacao. Briefly: Sensory evaluation: bitterness reduction of dark chocolate pieces. It counts as in vivo. The following applies: dosage 50 or 100 ppm per sample. Here is the method: (§1) The bitterness blocker candidates listed in Table 1 were prepared into a 1% sample solution with propylene glycol and heated to ensure complete solubilization. […] Individually, the respective sample solution was added to melted dark chocolate pieces with 100% dark cacao. A trained sensory evaluator was asked to estimate the perceived bitterness reduction against the control, as well as to provide comments on how the addition of the individual sample solution modulated the taste and mouth feel profile of the resulting melted dark chocolate pieces.

For the next experiment, the system named is dark roast coffee. Briefly: Sensory evaluation: bitterness reduction of dark roast coffee. It counts as in vivo. The following applies: dosage 50 or 100 ppm per sample; for Estimated % bitterness reduction: caffeine about 740 mg/l. The protocol: The bitterness blocker candidates listed in Table 1 were prepared into a 1% sample solution with propylene glycol and heated to ensure complete solubilization. […] A trained sensory evaluator was asked to estimate the perceived bitterness reduction against the control, as well as to provide comments on how the addition of the individual sample solution modulated the taste and mouth feel profile of the resulting dark roast coffee.

Experiment [3] relates to cough syrup DELSYM (dextromethorphan HBr). The experiment can be described thus: Sensory evaluation: bitterness reduction of cough syrup DELSYM. In kind it is in vivo. The following applies: dosage 50 or 100 ppm per sample; for Estimated % bitterness reduction: 6000 mg/l of dextromethorphan. Here is the method: as §1, with “a cough syrup sold under the trade name DELSYM®. The bitter-tasting agent contained in the cough syrup were dextromethorphan HBr USP 30 mg (as measured for each 5 ml teaspoon, i.e., 6000 mg/l of dextromethorphan).” for “melted dark chocolate pieces with 100% dark cacao.”, “cough syrup.” for “melted dark chocolate pieces.”

The test system of experiment [4] is cough syrup ROBITUSSIN DM (dextromethorphan HBr and guaifenesin). Briefly: Sensory evaluation: bitterness reduction of cough syrup ROBITUSSIN DM. In kind it is in vivo. The following applies: dosage 50 or 100 ppm per sample; for Estimated % bitterness reduction: 21000 mg/l of bitter tastants. The protocol:
as §1, with “a cough syrup sold under the trade name ROBITUSSIN® DM. The bitter-tasting agents contained in the cough syrup were dextromethorphan HBr USP 20 mg and guaifenesin USP 400 mg (as measured for each 20 ml serving, or 21000 mg/l of bitter tastants in total).” for “melted dark chocolate pieces with 100% dark cacao.”, “cough syrup.” for “melted dark chocolate pieces.”

Experiment [5] concerns full spectrum CBD hemp oil nanoemulsion. The experiment can be described thus: Sensory evaluation: bitterness reduction of full spectrum CBD hemp oil. In kind it is in vivo. To be noted: dosage 50 or 100 ppm per sample. The protocol:
The bitterness blocker candidates listed in Table 1 were prepared into a 1% sample solution with propylene glycol and heated to ensure complete solubilization. […] A full spectrum CBD hemp oil was emulsified into a water-soluble nanoemulsion first, to which was added the respective sample solution. […] A trained sensory evaluator was asked to estimate the perceived bitterness reduction against the control, as well as to provide comments on how the addition of the individual sample solution modulated the taste and mouth feel profile of the resulting oil nanoemulsion.

The test system of another experiment is CBD isolate nanoemulsion. Briefly: Sensory evaluation: bitterness reduction of CBD isolate. It counts as in vivo. The following applies: dosage 50 or 100 ppm per sample. Here is the method: The bitterness blocker candidates listed in Table 1 were prepared into a 1% sample solution with propylene glycol and heated to ensure complete solubilization. […] A CBD isolate was emulsified into a water-soluble nanoemulsion first, to which was added the respective sample solution. […] A trained sensory evaluator was asked to estimate the perceived bitterness reduction against the control, as well as to provide comments on how the addition of the individual sample solution modulated the taste and mouth feel profile of the resulting nanoemulsion.

Another experiment concerns THC nanoemulsion. Briefly: Sensory evaluation: bitterness reduction of THC. In kind it is in vivo. To be noted: dosage 50 or 100 ppm per sample; for Comments: THC nanoemulsion; for Estimated % bitterness reduction: THC nanoemulsion (10 mg THC per serving). Here is the method:
The bitterness blocker candidates listed in Table 1 were prepared into a 1% sample solution with propylene glycol and heated to ensure complete solubilization. […] THC was first emulsified into a water-soluble nanoemulsion (10 mg THC per serving), to which was added the respective sample solution. A trained sensory evaluator was asked to estimate the perceived bitterness reduction against the control, as well as to provide comments on how the addition of the individual sample solution modulated the taste and mouth feel profile of the resulting nanoemulsion.

A further experiment deals with caffeine in water. The experiment can be described thus: Two-alternative forced choice (2AFC) difference test. It counts as in vivo. The protocol:
The bitter blocker candidates BB09, BB11, and BB13 were subject to a two-alternative forced choice (2AFC) difference test wherein panelists were presented Control Caffeine solutions and Test solutions containing caffeine and one of three bitterness blocker candidates (BB09, BB 11, or BB13). Panelists were asked to evaluate the two samples and answer the question, “which one is more hitter?”
BB09 and BB11 were tested first. Three ounces of control (caffeine in water), BB09 in caffeine water, and BB11 in caffeine water were presented at room temperature in separate plastic souffle cups labeled with 3-digit codes. Ten sensory trained panelists evaluated each sample in three repetitions with a 10 minute break between repetitions. Panelists then completed the 2AFC. Data was collected on EveQuestion and analyzed on XLSTAT. Testing was conducted at Sensations Research according to FEMA guidelines.
BB13 was tested separately. Two ounces of control (caffeine in water), BB13 in caffeine water were presented at room temperature in separate plastic souffle cups labeled with 3-digit codes. Fifteen participants evaluated each sample in two repetitions with a 10 minute break between repetitions for a total of thirty evaluations as per the FEMA guidelines. Panelists then completed the 2AFC to identify the more bitter sample. Data was collected and analyzed on Compusense.

Experiment [6] concerns bitter-responsive human taste bud tissue-derived cells (hTBEC). The experiment can be described thus: ATP secretion detection assay (luminescence). It counts as cell-based. The protocol: The bitter blocker candidates were further characterized using bitter-responsive human taste bud tissue-derived cells (hTBEC) platforms and bioassays. Bitter-responsive hTBECs were treated with hitter blocker candidates and various bitter agonists to assess the efficacy of each bitter blocker candidate in reducing the bitterness of each of the various bitter agonists.
One industry standard bitter agonist was used as a control (L-Praziquantel), and five bitter blocker controls were used (Senomyx BB68, STX-001, sodium gluconate, eridictyol, and homoeridictyol).
BB09, BB11, and BB13 were first tested at various concentrations in combination with 100 μM Dextromethorphan-HBr.
Next, bitter blocker concentration ranges were narrowed (100 μM-1,000 μM) and compared to a fixed concentration of stimulus. […] BB13 was evaluated further by real time ATP secretion detection in pooled hTBEC 66 cells treated with 300 μM Theobromine.
Each culture was treated with BB09, BB11, BB13, STX001, or Senomyx BB68, as well as either Dextromethorphan-HBr at 1000 μM (FIGS. 18A-18C), Theobromine at 1,000 μM (FIGS. 19A-19C), Rebaudioside A at 1 mM (FIGS. 20A-20C), or Caffeine at 3 mM (FIGS. 21A-21C).

Regarding `COc1ccc(-c2cc(=O)c3c(O)cc(O)cc3o2)cc1` [BB01, Acacetin], the Comments result in the experiment with 0.25% caffeine solution is “Some bitterness blocking on sides”.

Turning to `COc1cc([C@@H]2CC(=O)c3c(O)cc(O)cc3O2)ccc1O` [BB02, Homoeriodictyol], the Comments result in experiment [1] is “Some blocking on sides and tip”; in experiment [2], “Some blocking on sides and tip”; in the experiment with dark roast coffee, “Some blocking on sides and tip”; in experiment [3] it was “Some blocking on sides and tip”; in experiment [4], “Some blocking on sides and tip”; in experiment [5], “Some blocking on sides and tip”. Also, the Comments entry was “Some blocking on sides and tip” with CBD isolate nanoemulsion; “Some blocking on sides and tip” in the experiment with THC nanoemulsion.

In the case of `O=c1c(O)c(-c2ccc(O)cc2)oc2cc(O)cc(O)c12` [BB03, Kaempferol], the Comments result in the experiment on 0.25% caffeine solution is “Some bitterness blocking on sides”.

Consider `O=C1c2c(O)cc(O)cc2O[C@H](c2ccc(O)c(O)c2)[C@H]1O` [BB04, Dihydroquercetin], for which the Comments result in the experiment with 0.25% caffeine solution is “Some bitterness blocking on sides”.

For the compound `O=C1c2c(O)cc(O)cc2O[C@H](c2ccc(O)cc2)[C@H]1O` [BB06, Dihydrokaempferol], in the experiment with 0.25% caffeine solution, the Comments entry is on record as “Some bitterness blocking on sides”.

As to `O=C1C[C@@H](c2ccc(O)c(O)c2)Oc2cc(O)cc(O)c21` [BB07, Eriodictyol], the “Estimated % bitterness reduction” value with 0.25% caffeine solution is on record as 50%; in [1], 50%; in experiment [2], 50%; in the experiment with dark roast coffee, 50%; in experiment [3] it was 30%; in experiment [4], 30%. The “Estimated % bitterness reduction” value (in [5]; in the experiment with CBD isolate nanoemulsion; with THC nanoemulsion) was 30% each time. The Comments entry with 0.25% caffeine solution is recorded as “Some bitterness blocking on all parts”; in experiment [1], “Some bitterness blocking on all”; in experiment [2], “Some bitterness blocking on all”; in the experiment with dark roast coffee, “Some bitterness blocking on all”; in [3], “Some bitterness blocking on all”; in experiment [4], “Some bitterness blocking on all”. Moreover, the Comments entry (in experiment [5]; with CBD isolate nanoemulsion; in the experiment with THC nanoemulsion) was “Some bitterness blocking on all” each time.

Turning to `COc1cc([C@@H]2CC(=O)c3c(O)cc(O[C@@H]4O[C@H](CO)[C@@H](O)[C@H](O)[C@H]4O)cc3O2)ccc1O` [BB09, Homoeriodictyol 7-O-glucoside], the Comments result in the experiment on 0.25% caffeine solution is “Good upfront bitterness reduction”; in experiment [1], “Good upfront bitterness”; in experiment [2], “Good bitterness reduction but”; in the experiment with dark roast coffee, “Nice upfront bitterness reduction”; in experiment [3], “Covered up a good percentage of”; in [5], “Nice upfront bitterness reduction”. For the same compound, the Comments result in the experiment on CBD isolate nanoemulsion and in the experiment with THC nanoemulsion was “Nice upfront bitterness reduction” each time. Besides, in the experiment with caffeine in water (2AFC, 90% confidence level, which sample is more bitter), the “Significant?” value was “Yes,”. Besides, the “# Selected Variant (which is more bitter?)” value with caffeine in water (of 30 responses (10 panelists, 3 evaluations), control caffeine in water vs variant in caffeine water) worked out at 10. The “real time Rebaudioside A-induced ATP secretion” value in [6] (1 mM Rebaudioside A, blocker 1,000 μM, pooled hTBEC 56 cultures (FIG. 17)) was “attenuated”. For the same compound, the “inhibition of the bitter agonists (ATP secretion)” value in experiment [6] (hTBEC 66, hTBEC 56, hTBEC Donor H, Dextromethorphan-HBr at 1000 μM, Theobromine 1,000 μM, Rebaudioside A 1 mM or Caffeine 3 mM (FIGS. 18-21)) is “trends of inhibition in most cases”.

Consider `O=C1C[C@@H](c2ccc(O[C@@H]3O[C@H](CO)[C@@H](O)[C@H](O)[C@H]3O)c(O)c2)Oc2cc(O)cc(O)c21` [BB12, Eriodictyol 4′-O-glucoside], for which the “Estimated % bitterness reduction” value (with 0.25% caffeine solution; in [1]; in experiment [2]; in the experiment on dark roast coffee; in [3]; in [4]) was 30% each time. Moreover, the “Estimated % bitterness reduction” value (in [5]; in the experiment with CBD isolate nanoemulsion; with THC nanoemulsion) was 30% throughout. Besides, the Comments result with 0.25% caffeine solution is on record as “Some bitterness blocking on front”.

These data come from patent US20230270148A1, “BITTER BLOCKERS AND RELATED METHODS OF USE” (Conagen Inc., priority 2020, published 2023).
